Results taken from patent US20260055079A1, “PHTHALAZINONE COMPOUNDS AS PARP7 INHIBITORS” (AZKARRA THERAPEUTICS, INC., priority 2022, published 2026).
pIC50: −log10 of the molar value. Read-outs that look alike come from different tables or passages of the source.

Experiments:
[1] = test system: NCI-H1373 (human lung adenocarcinoma) cells; assay: Cell proliferation assay (CellTiter-Glo), NCI-H1373; format: cell-based; settings: Homo sapiens, NCI-H1373, 144 h, read-out: NCI-H1373 GI50
His-GST-PARP7 = His-GST-PARP7 (Homo sapiens (Human), UniProt Q7Z3E1); assay: PARP7 biochemical assay; settings: read-out: PARP7 IC50
His-GST-PARP7, sequence (Q7Z3E1 whole entry): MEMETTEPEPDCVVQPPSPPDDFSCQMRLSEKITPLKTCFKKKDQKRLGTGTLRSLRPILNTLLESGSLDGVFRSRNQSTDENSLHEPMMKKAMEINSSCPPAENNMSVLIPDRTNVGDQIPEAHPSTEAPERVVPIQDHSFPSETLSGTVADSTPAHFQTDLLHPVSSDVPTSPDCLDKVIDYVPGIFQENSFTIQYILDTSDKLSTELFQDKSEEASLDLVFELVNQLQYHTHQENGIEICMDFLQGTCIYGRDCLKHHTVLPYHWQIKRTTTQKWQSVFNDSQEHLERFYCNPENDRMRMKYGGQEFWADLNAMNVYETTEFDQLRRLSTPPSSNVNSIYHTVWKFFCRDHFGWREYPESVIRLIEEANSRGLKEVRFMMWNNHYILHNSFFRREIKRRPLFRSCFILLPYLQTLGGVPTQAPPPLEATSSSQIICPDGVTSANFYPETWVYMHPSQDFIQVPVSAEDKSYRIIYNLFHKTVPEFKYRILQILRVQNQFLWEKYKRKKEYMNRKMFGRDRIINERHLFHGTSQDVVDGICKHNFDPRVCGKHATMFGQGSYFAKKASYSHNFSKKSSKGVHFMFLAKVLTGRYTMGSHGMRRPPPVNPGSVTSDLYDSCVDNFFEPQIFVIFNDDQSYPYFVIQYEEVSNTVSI

GI50 ([1]; 6 days, CellTiter-Glo) [nM] | SMILES | GI50 [1] [nM] | pIC50 (His-GST-PARP7)
– | N#Cc1ccc(N2CCN(C(=O)c3cccc(Cc4n[nH]c(=O)c5ccc(Oc6ccccc6)cc45)c3)CC2)nc1 [Example 2, 6-(4-(3-((4-Oxo-7-phenoxy-3,4-dihydrophthalazin-1-yl)methyl)benzoyl)piperazin-1-yl)nicotinonitrile] | < 100 | –
– | N#Cc1ccc(N2CCN(C(=O)c3cccc(Cc4n[nH]c(=O)c5ccc(Cl)cc45)c3)CC2)nc1 [Example 5, 6-(4-(3-((7-Chloro-4-oxo-3,4-dihydrophthalazin-1-yl)methyl)benzoyl)piperazin-1-yl)nicotinonitrile] | 100 to 1000 | –
– | N#Cc1ccc(N2CCN(C(=O)c3cccc(Cc4n[nH]c(=O)c5ccc(F)cc45)c3)CC2)nc1 [Example 6, 6-(4-(3-((7-Fluoro-4-oxo-3,4-dihydrophthalazin-1-yl)methyl)benzoyl)piperazin-1-yl)nicotinonitrile] | 100 to 1000 | –
– | N#Cc1ccc(N2CCN(C(=O)c3cc(Cc4n[nH]c(=O)c5ccc(OCC6CC6)cc45)ccc3F)CC2)nc1 [Example 7, 6-(4-(5-((7-(Cyclopropylmethoxy)-4-oxo-3,4-dihydrophthalazin-1-yl)methyl)-2-fluorobenzoyl)piperazin-1-yl)nicotinonitrile] | < 100 | –
– | N#Cc1ccc(N2CCN(C(=O)c3cc(Cc4n[nH]c(=O)c5ccc(OCC(F)(F)F)cc45)ccc3F)CC2)nc1 [Example 9, 6-(4-(2-Fluoro-5-((4-oxo-7-(2,2,2-trifluoroethoxy)-3,4-dihydrophthalazin-1-yl)methyl)benzoyl)piperazin-1-yl)nicotinonitrile] | 100 to 1000 | > 7.30
– | COC1CN(c2ccc3c(=O)[nH]nc(Cc4ccc(F)c(C(=O)N5CCN(c6ccc(C#N)cn6)CC5)c4)c3c2)C1 [Example 11, 6-(4-(2-Fluoro-5-((7-(3-methoxyazetidin-1-yl)-4-oxo-3,4-dihydrophthalazin-1-yl)methyl)benzoyl)piperazin-1-yl)nicotinonitrile] | 100 to 1000 | > 7.30
100 to 1000 | N#Cc1ccc(N2CCN(C(=O)c3cc(Cc4n[nH]c(=O)c5ccc(NC6CC6)cc45)ccc3F)CC2)nc1 [Example 12, 6-(4-(5-((7-(Cyclopropylamino)-4-oxo-3,4-dihydrophthalazin-1-yl)methyl)-2-fluorobenzoyl)piperazin-1-yl)nicotinonitrile] | – | > 7.30
1000 to 5000 | C#CCNc1ccc2c(=O)[nH]nc(Cc3ccc(F)c(C(=O)N4CCN(c5ccc(C#N)cn5)CC4)c3)c2c1 [Example 15, 6-(4-(2-Fluoro-5-((4-oxo-7-(prop-2-ynylamino)-3,4-dihydrophthalazin-1-yl)methyl)benzoyl)piperazin-1-yl)nicotinonitrile] | – | > 7.30
1000 to 5000 | C#CCN(C)c1ccc2c(=O)[nH]nc(Cc3ccc(F)c(C(=O)N4CCN(c5ccc(C#N)cn5)CC4)c3)c2c1 [Example 17, 6-(4-(2-Fluoro-5-((7-(methyl(prop-2-ynyl)amino)-4-oxo-3,4-dihydrophthalazin-1-yl)methyl)benzoyl)piperazin-1-yl)nicotinonitrile] | – | > 7.30
100 to 1000 | CC#CCOc1ccc2c(=O)[nH]nc(Cc3ccc(F)c(C(=O)N4CCN(c5ccc(C#N)cn5)CC4)c3)c2c1 [Example 19, 6-(4-(5-((7-(But-2-ynyloxy)-4-oxo-3,4-dihydrophthalazin-1-yl)methyl)-2-fluorobenzoyl)piperazin-1-yl)nicotinonitrile] | – | > 7.30
– | N#Cc1ccc(N2CCN(C(=O)c3cc(Cc4n[nH]c(=O)c5ccc(OC(F)F)cc45)ccc3F)CC2)nc1 [Example 21, 6-(4-(5-((7-(Difluoromethoxy)-4-oxo-3,4-dihydrophthalazin-1-yl)methyl)-2-fluorobenzoyl)piperazin-1-yl)nicotinonitrile] | 100 to 1000 | > 7.30
1000 to 5000 | N#Cc1ccc(N2CCN(C(=O)c3cc(Cc4n[nH]c(=O)c5ccc(NCC(F)(F)F)cc45)ccc3F)CC2)nc1 [Example 22, 6-(4-(2-Fluoro-5-((4-oxo-7-((2,2,2-trifluoroethyl)amino)-3,4-dihydrophthalazin-1-yl)methyl)benzoyl)piperazin-1-yl)nicotinonitrile] | – | > 7.30
100 to 1000 | N#Cc1ccc(N2CCN(C(=O)c3cc(Cc4n[nH]c(=O)c5ccc(NC6CCC6)cc45)ccc3F)CC2)nc1 [Example 29, 6-(4-(5-((7-(Cyclobutylamino)-4-oxo-3,4-dihydrophthalazin-1-yl)methyl)-2-fluorobenzoyl)piperazin-1-yl)nicotinonitrile] | – | > 7.30
1000 to 5000 | N#Cc1ccc(N2CCN(C(=O)c3cc(Cc4n[nH]c(=O)c5ccc(NCCC(F)(F)F)cc45)ccc3F)CC2)nc1 [Example 33, 6-(4-(2-Fluoro-5-((4-oxo-7-((3,3,3-trifluoropropyl)amino)-3,4-dihydrophthalazin-1-yl)methyl)benzoyl)piperazin-1-yl)nicotinonitrile] | – | > 7.30
> 5000 | CC#Cc1ccc2c(=O)[nH]nc(Cc3ccc(F)c(C(=O)N4CCN(C(=O)CC#N)CC4)c3)c2c1 [Example 58, 3-(4-(2-Fluoro-5-((4-oxo-7-(prop-1-ynyl)-3,4-dihydrophthalazin-1-yl)methyl)benzoyl)piperazin-1-yl)-3-oxopropanenitrile] | – | > 7.30
1000 to 5000 | CC#Cc1ccc2c(=O)[nH]nc(Cc3ccc(F)c(C(=O)N4CC5(C4)CN(c4ccc(C#N)cn4)C5)c3)c2c1 [Example 60, 6-(6-(2-Fluoro-5-((4-oxo-7-(prop-1-yn-1-yl)-3,4-dihydrophthalazin-1-yl)methyl)benzoyl)-2,6-diazaspiro[3.3]heptan-2-yl)nicotinonitrile] | – | > 7.30
> 5000 | CC#Cc1ccc2c(=O)[nH]nc(Cc3ccc(F)c(C(=O)N4CCn5c(nnc5C5CC5)C4)c3)c2c1 [Example 63, 4-[[3-(3-cyclopropyl-6,8-dihydro-5H-[1,2,4]triazolo[4,3-a]pyrazine-7-carbonyl)-4-fluoro-phenyl]methyl]-6-prop-1-ynyl-2H-phthalazin-1-one] | – | > 7.30
1000 to 5000 | CC#Cc1ccc2c(=O)[nH]nc(Cc3ccc(F)c(C(=O)N4C[C@H]5C[C@@H]4CN5c4ccc(C#N)cn4)c3)c2c1 [Example 66, 6-((1R,4R)-5-(2-Fluoro-5-((4-oxo-7-(prop-1-ynyl)-3,4-dihydrophthalazin-1-yl)methyl)benzoyl)-2,5-diazabicyclo[2.2.1]heptan-2-yl)nicotinonitrile] | – | > 7.30
1000 to 5000 | CC#Cc1ccc2c(=O)[nH]nc(Cc3ccc(F)c(C(=O)N4CCC(F)(c5ccc(C#N)cn5)CC4)c3)c2c1 [Example 67, 6-(4-Fluoro-1-(2-fluoro-5-((4-oxo-7-(prop-1-yn-1-yl)-3,4-dihydrophthalazin-1-yl)methyl)benzoyl)piperidin-4-yl)nicotinonitrile] | – | 7.00 to 7.30
– | O=C(NC1CN(C(=O)C2CC2)C1)c1cc(Cc2n[nH]c(=O)c3ccc(OC4CCC4)cc23)ccc1F [Example 203, 5-((7-Cyclobutoxy-4-oxo-3,4-dihydrophthalazin-1-yl)methyl)-N-(1-(cyclopropanecarbonyl)azetidin-3-yl)-2-fluorobenzamide] | – | 6.30 to 7.00
– | N#Cc1ccc(N2CC(NC(=O)c3cc(Cc4n[nH]c(=O)c5ccc(OC6CCC6)cc45)ccc3F)C2)nc1 [Example 204, N-(1-(5-Cyanopyridin-2-yl)azetidin-3-yl)-5-((7-cyclobutoxy-4-oxo-3,4-dihydrophthalazin-1-yl)methyl)-2-fluorobenzamide] | – | < 5.70
– | O=C(NC1CN(c2ncc(C(F)(F)F)cn2)C1)c1cc(Cc2n[nH]c(=O)c3ccc(OC4CCC4)cc23)ccc1F [Example 205, 5-((7-Cyclobutoxy-4-oxo-3,4-dihydrophthalazin-1-yl)methyl)-2-fluoro-N-(1-(5-(trifluoromethyl)pyrimidin-2-yl)azetidin-3-yl)benzamide] | – | < 5.70
– | O=C(C1CC1)N1CCN(c2noc3c(Cc4n[nH]c(=O)c5ccc(OC6CCC6)cc45)cccc23)CC1 [Example 206, 6-Cyclobutoxy-4-((3-(4-(cyclopropanecarbonyl)piperazin-1-yl)benzo[d]isoxazol-7-yl)methyl)phthalazin-1(2H)-one] | – | 6.30 to 7.00
– | O=c1[nH]nc(Cc2cccc3c(N4CCN(c5ncc(C(F)(F)F)cn5)CC4)noc23)c2cc(OC3CCC3)ccc12 [Example 207, 6-Cyclobutoxy-4-((3-(4-(5-(trifluoromethyl)pyrimidin-2-yl)piperazin-1-yl)benzo[d]isoxazol-7-yl)methyl)phthalazin-1(2H)-one] | – | < 5.70
– | O=c1[nH]nc(Cc2ccc3onc(N4CCN(c5ncc(C(F)(F)F)cn5)CC4)c3c2)c2cc(OC3CCC3)ccc12 [Example 209, 6-Cyclobutoxy-4-((3-(4-(5-(trifluoromethyl)pyrimidin-2-yl)piperazin-1-yl)benzo[d]isoxazol-5-yl)methyl)phthalazin-1(2H)-one] | – | < 5.70
– | O=C(C1CC1)N1CCN(c2noc3ccc(Cc4n[nH]c(=O)c5ccc(OC6CCC6)cc45)cc23)CC1 [Example 210, 6-cyclobutoxy-4-((3-(4-(cyclopropanecarbonyl)piperazin-1-yl)benzo[d]isoxazol-5-yl)methyl)phthalazin-1(2H)-one] | – | 5.70 to 6.30
– | O=c1[nH]nc(Cc2ccc3c(N4CCN(c5ncc(C(F)(F)F)cn5)CC4)noc3c2)c2cc(OC3CCC3)ccc12 [Example 212, 6-Cyclobutoxy-4-((3-(4-(5-(trifluoromethyl)pyrimidin-2-yl)piperazin-1-yl)benzo[d]isoxazol-6-yl)methyl)phthalazin-1(2H)-one] | – | < 5.70
– | O=C(C1CC1)N1CCN(c2noc3cc(Cc4n[nH]c(=O)c5ccc(OC6CCC6)cc45)ccc23)CC1 [Example 213, 6-cyclobutoxy-4-((3-(4-(cyclopropanecarbonyl)piperazin-1-yl)benzo[d]isoxazol-6-yl)methyl)phthalazin-1(2H)-one] | – | < 5.70
– | N#Cc1ccc(N2CCN(c3noc4cc(Cc5n[nH]c(=O)c6ccc(OC7CCC7)cc56)ccc34)CC2)nc1 [Example 214, 6-(4-(6-((7-Cyclobutoxy-4-oxo-3,4-dihydrophthalazin-1-yl)methyl)benzo[d]isoxazol-3-yl)piperazin-1-yl)nicotinonitrile] | – | < 5.70
